Data from the NIST ThermoML archive (doi:10.1021/je700026d).

Test: xn = mol fraction of the nth substance listed
Details: Liquid; for speed of sound: 100 kPa, Linear variable-path acoustic interferometer; for viscosity: Capillary tube (Ostwald / Ubbelohde) method; for mass density: Pycnometric method

NC=O [formamide] + COCCO
298.15 K
Details	speed of sound [m/s]
x1 = 0.1581	1353.6
x1 = 0.2969	1373.7
x1 = 0.4199	1397.5
x1 = 0.5297	1423.8
x1 = 0.6282	1451.1
x1 = 0.7171	1478.3
x1 = 0.7977	1506
x1 = 0.8711	1533.9
x1 = 0.9383	1564.3
x1 = 1	1591.3

101.3 kPa
Details	mass density, 298.15 K [kg/m3]	mass density, 308.15 K [kg/m3]	mass density, 318.15 K [kg/m3]	viscosity, 298.15 K [mPa·s]	viscosity, 308.15 K [mPa·s]	viscosity, 318.15 K [mPa·s]
x1 = 0.1581	977	969.1	963.5	1.912	1.515	1.225
x1 = 0.2969	994.2	986.2	980.3	2.291	1.759	1.394
x1 = 0.4199	1010.9	1002.8	996.5	2.659	1.997	1.561
x1 = 0.5297	1027.6	1019.4	1012.8	2.963	2.206	1.709
x1 = 0.6282	1044.1	1035.9	1029.1	3.173	2.367	1.831
x1 = 0.7171	1060.2	1052.3	1045.3	3.331	2.485	1.929
x1 = 0.7977	1076.7	1068.7	1061.5	3.395	2.541	1.978
x1 = 0.8711	1093.8	1085.7	1078.1	3.399	2.562	2.016
x1 = 0.9383	1111.1	1102.9	1094.6	3.348	2.55	2.003
x1 = 1	1129.2	1120.5	1111.1	3.302	2.542	2.001

NC=O [formamide] + CC#N
298.15 K
Details	speed of sound [m/s]
x1 = 0.0919	1277.7
x1 = 0.1856	1299.6
x1 = 0.2809	1322.8
x1 = 0.3779	1349.6
x1 = 0.4768	1380.8
x1 = 0.5775	1412.8
x1 = 0.6802	1449
x1 = 0.7847	1488.8
x1 = 0.8913	1529.8
x1 = 1	1591.3

101.3 kPa
Details	mass density, 298.15 K [kg/m3]	mass density, 308.15 K [kg/m3]	mass density, 318.15 K [kg/m3]	viscosity, 298.15 K [mPa·s]	viscosity, 308.15 K [mPa·s]	viscosity, 318.15 K [mPa·s]
x1 = 0.0919	803.8	794.9	785.6	0.402	0.366	0.339
x1 = 0.1856	832.8	824.1	815.8	0.485	0.432	0.396
x1 = 0.2809	863.4	855.1	847.4	0.593	0.522	0.472
x1 = 0.3779	895.8	887.4	879.9	0.733	0.635	0.565
x1 = 0.4768	929.2	921.2	914	0.921	0.786	0.687
x1 = 0.5775	965.2	956.6	950.7	1.168	0.978	0.847
x1 = 0.6802	1002.9	994.4	989.4	1.507	1.239	1.046
x1 = 0.7847	1042.6	1034.7	1029.3	1.945	1.569	1.295
x1 = 0.8913	1085.1	1076.9	1071.6	2.54	1.999	1.615
x1 = 1	1129.2	1120.5	1111.1	3.302	2.542	2.001

CC(=O)c1ccccc1 [acetophenone] + NC=O
298.15 K
Details	speed of sound [m/s]
x2 = 0	1296.4
x2 = 0.2286	1304.8
x2 = 0.4001	1323.3
x2 = 0.5334	1345.8
x2 = 0.6401	1379.3
x2 = 0.7273	1413.6
x2 = 0.8001	1456.5
x2 = 0.8616	1488.4
x2 = 0.9143	1527.3
x2 = 0.96	1558.9

101.3 kPa
Details	mass density, 298.15 K [kg/m3]	mass density, 308.15 K [kg/m3]	mass density, 318.15 K [kg/m3]	viscosity, 298.15 K [mPa·s]	viscosity, 308.15 K [mPa·s]	viscosity, 318.15 K [mPa·s]
x2 = 0	1023.1	1014.8	1007.5	1.653	1.412	1.117
x2 = 0.2286	1032.9	1024.9	1017.5	2.234	1.762	1.377
x2 = 0.4001	1042.9	1035.1	1027.5	2.795	2.077	1.607
x2 = 0.5334	1053.1	1045.3	1037.6	3.267	2.355	1.825
x2 = 0.6401	1063.3	1055.5	1047.7	3.596	2.587	1.988
x2 = 0.7273	1073.8	1065.8	1057.9	3.778	2.724	2.1
x2 = 0.8001	1084.4	1076.3	1068.2	3.819	2.779	2.141
x2 = 0.8616	1095.3	1087	1078.7	3.735	2.748	2.111
x2 = 0.9143	1106.4	1097.9	1089.4	3.59	2.685	2.068
x2 = 0.96	1117.7	1109.1	1100.1	3.439	2.608	2.027

COCCOC [1,2-dimethoxyethane] + NC=O
298.15 K
Details	speed of sound [m/s]
x2 = 0	1146.2
x2 = 0.1819	1200.3
x2 = 0.3334	1254.3
x2 = 0.4616	1306.2
x2 = 0.5715	1355
x2 = 0.6668	1399.9
x2 = 0.7501	1441.9
x2 = 0.8236	1480.5
x2 = 0.8889	1518.5
x2 = 0.9474	1556.1

Details	mass density, 298.15 K [kg/m3]	mass density, 308.15 K [kg/m3]	mass density, 318.15 K [kg/m3]	viscosity, 298.15 K [mPa·s]	viscosity, 308.15 K [mPa·s]	viscosity, 318.15 K [mPa·s]
101 kPa, x2 = 0	861.5	850.7	839.6	–	–	–
101 kPa, x2 = 0.1819	893.1	883.5	874.6	–	–	–
101 kPa, x2 = 0.3334	920.1	910.4	902.6	–	–	–
101 kPa, x2 = 0.4616	946	936.3	929.4	–	–	–
101 kPa, x2 = 0.5715	971.8	962.3	955.9	–	–	–
101 kPa, x2 = 0.6668	997.3	988.5	982.2	–	–	–
101 kPa, x2 = 0.7501	1022.2	1013.6	1007.5	–	–	–
101 kPa, x2 = 0.8236	1048.3	1039.4	1033.3	–	–	–
101 kPa, x2 = 0.8889	1073.7	1065.7	1059.2	–	–	–
101 kPa, x2 = 0.9474	1100.3	1092.7	1085.5	–	–	–
101.3 kPa, x2 = 0	–	–	–	0.409	0.366	0.33
101.3 kPa, x2 = 0.1819	–	–	–	0.603	0.522	0.459
101.3 kPa, x2 = 0.3334	–	–	–	0.848	0.713	0.609
101.3 kPa, x2 = 0.4616	–	–	–	1.164	0.952	0.785
101.3 kPa, x2 = 0.5715	–	–	–	1.545	1.243	0.994
101.3 kPa, x2 = 0.6668	–	–	–	1.925	1.536	1.218
101.3 kPa, x2 = 0.7501	–	–	–	2.296	1.806	1.427
101.3 kPa, x2 = 0.8236	–	–	–	2.627	2.045	1.614
101.3 kPa, x2 = 0.8889	–	–	–	2.899	2.243	1.775
101.3 kPa, x2 = 0.9474	–	–	–	3.12	2.408	1.903

NC=O [formamide] + C[S+](C)[O-]
298.15 K
Details	speed of sound [m/s]
x1 = 0.1616	1480.1
x1 = 0.3025	1480.6
x1 = 0.4264	1483.9
x1 = 0.5363	1492.3
x1 = 0.6343	1502.9
x1 = 0.7224	1512.7
x1 = 0.8019	1526.4
x1 = 0.874	1543.7
x1 = 0.9398	1561.2
x1 = 1	1591.3

101.3 kPa
Details	mass density, 298.15 K [kg/m3]	mass density, 308.15 K [kg/m3]	mass density, 318.15 K [kg/m3]	viscosity, 298.15 K [mPa·s]	viscosity, 308.15 K [mPa·s]	viscosity, 318.15 K [mPa·s]
x1 = 0.1616	1099.3	1090.7	1082.7	2.457	1.859	1.64
x1 = 0.3025	1102.8	1094.9	1087.3	2.868	2.135	1.823
x1 = 0.4264	1106.3	1098.5	1090.9	3.214	2.365	1.968
x1 = 0.5363	1109.5	1101.6	1093.9	3.468	2.52	2.059
x1 = 0.6343	1112.6	1104.6	1096.7	3.608	2.621	2.112
x1 = 0.7224	1115.8	1107.6	1099.5	3.652	2.653	2.118
x1 = 0.8019	1119.1	1110.7	1102.3	3.626	2.639	2.083
x1 = 0.874	1122.5	1113.9	1105.3	3.54	2.613	2.054
x1 = 0.9398	1125.8	1117.2	1108.2	3.426	2.571	2.021
x1 = 1	1129.2	1120.5	1111.1	3.302	2.542	2.001
